How the values were obtained:
[1] = tested on: adenovirus-TGFβ models of pulmonary fibrosis; assay: Adenovirus-TGFβ model of pulmonary fibrosis; format: in vivo, Mice; conditions: 1 mg/kg daily from day 21
Description: FIGS. 13A-C. Mice were infected with 1×10^8 pfu adenovirus particles expressing control (GFP) or active TGFβ by tracheal instillation. On day 21, all animals began daily treatment with either vehicle (methocel/saline) or 1 mg/kg of the indicated TAT polypeptide. (A) On days 21 and 35, peripheral blood oxygen was determined. (B and C) Mice were sacrificed on day 39 and processed for lung hydroxyproline content (B) or qPCR expression of the indicated genes (C) (CTGF, connective tissue growth factor; α-SMA, alpha smooth muscle actin; Col Iα1, collagen Iα1). For panels A-C, data reflect mean+/−SEM of n=8 and n=16 for adenovirus-GFP and adenovirus-TGFβ, respectively. *P<0.05, **P<0.001, ***P<0.0005.
Mice were infected with 1×10^8 pfu adenovirus particles expressing control (GFP) or active TGFβ by tracheal instillation. On day 21, all animals began daily treatment with either vehicle (methocel/saline) or 1 mg/kg of the indicated TAT polypeptide. On days 21 and 35, peripheral blood oxygen was determined. Mice were sacrificed on day 39 and processed for lung hydroxyproline content or qPCR expression of CTGF (connective tissue growth factor), α-SMA (alpha smooth muscle actin), and Col Iα1 (collagen Iα1).

[2] = tested on: Normal human lung fibroblasts (NHLF) or lung fibroblasts from idiopathic pulmonary fibrosis (IPF) patients; assay: Profibrotic responses in human lung fibroblasts (F-actin, Western, qPCR); format: cell-based; conditions: TGFβ 5 ng/mL 24 hours
Description: FIGS. 11A-C. TAT-SH3-2 inhibits profibrotic responses in human lung fibroblasts. (A) Normal human lung fibroblasts (NHLF) or lung fibroblasts from idiopathic pulmonary fibrosis (IPF) patients were transduced with the indicated TAT polypeptide. TGFβ (5 ng/mL) or SB431542 (10 μM) was then added for an additional 24 hours. Images were obtained on a LSM510 confocal microscope following F-actin labeling with phalloidin-TRITC and DAPI nuclei staining. Scale bar: 10 μm. (B) Western analysis for the indicated polypeptides (α-SMA, alpha smooth muscle actin; CTGF, connective tissue growth factor; and GAPDH, glyceraldehyde phosphate dehydrogenase) subsequent to TAT polypeptide transduction and 24 hour treatment in the absence (−) or presence (+) of TGFβ (5 ng/mL) or SB431542 (10 μM). (C) NHLF or IPF fibroblasts were treated as in (A), and qPCR was performed as described herein. Results represent mean±SEM from three independent experiments. *P<0.05, **P<0.005, *** P<0.001.
Normal human lung fibroblasts (NHLF) or lung fibroblasts from idiopathic pulmonary fibrosis (IPF) patients were transduced with the indicated TAT polypeptide. TGFβ (5 ng/mL) or SB431542 (10 μM) was then added for an additional 24 hours. Images were obtained on a LSM510 confocal microscope following F-actin labeling with phalloidin-TRITC and DAPI nuclei staining. […]

[3] = Liver enzymes and inflammatory cells in blood of saline or BLM mice; format: in vivo, C57BL/6 mice; conditions: 1 mg/kg daily from day 14; blood at days 0, 14, 28
Description: (§1) FIG. 12. C57BL/6 mice received intratracheal instillation of saline or bleomycin (BLM). On day 14, all animals began daily treatment with either vehicle (methocel/saline) or 1 mg/kg of TAT-SH3-2. Blood samples were obtained at days 0, 14, and 28 from the facial vein of unanesthetized animals and assessed for effect on the indicated liver enzymes and inflammatory cells. Quantification of lymphocytes, monocytes, and neutrophils were measured using a VetScan HM5 Analyzer. Serum levels (U/L, units per liter; g/dL, grams per deciliter) of alkaline phosphatase (ALP), alanine aminotransferase (ALT), and albumin were determined using a Piccolo Xpress Chemistry analyzer. Data are presented as mean+/−SEM of n=5.
as §1, with “C57BL/6” for “FIG. 12. C57BL/6”, “analyzer.” for “analyzer. Data are presented as mean+/−SEM of n=5.”

## TAT-SH3-2: TAT-SNX9(SH3) fusion polypeptide having SNX9 amino acids 21-51 (31 mer) (TVNEGEIITITNPDVGGGWLEGRNIKGERGL; left off: small tags and cut ends)
[1]
  lung function (peripheral blood oxygen): stabilized lung function
[2]
  profibrotic responses in human lung fibroblasts: inhibited profibrotic responses
[3]
  inflammatory cell recruitment (lymphocytes, monocytes, neutrophils): no demonstrable effect
  murine liver enzymes (ALP, ALT, albumin): no demonstrable effect
